Our source for the IC50, hepatocyte CLint and Activity values is ChEMBL document CHEMBL5131397, “Discovery and Optimization of Pyrazole Amides as Inhibitors of ELOVL1” (J Med Chem, 2021).

The target in series [1] is T1, Very long chain fatty acid elongase 1 (Homo sapiens, UniProt Q9BW60).
T1 sequence (Q9BW60 whole entry): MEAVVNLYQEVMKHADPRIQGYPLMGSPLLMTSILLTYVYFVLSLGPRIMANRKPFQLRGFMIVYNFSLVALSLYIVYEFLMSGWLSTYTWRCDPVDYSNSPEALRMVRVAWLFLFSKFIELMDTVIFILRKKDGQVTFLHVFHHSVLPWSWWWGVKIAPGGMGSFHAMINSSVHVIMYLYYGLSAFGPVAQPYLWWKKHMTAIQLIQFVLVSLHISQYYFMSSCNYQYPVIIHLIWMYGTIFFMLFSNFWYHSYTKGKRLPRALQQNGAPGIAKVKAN
The experiment in a line: Inhibition of ELOVL1 (unknown origin) using C22-acyl-CoA as substrate by radiometric enzyme assay.

The target of series [2] is T2, Very long chain fatty acid elongase 6 (Homo sapiens, UniProt Q9H5J4).
T2 sequence (Q9H5J4 whole entry): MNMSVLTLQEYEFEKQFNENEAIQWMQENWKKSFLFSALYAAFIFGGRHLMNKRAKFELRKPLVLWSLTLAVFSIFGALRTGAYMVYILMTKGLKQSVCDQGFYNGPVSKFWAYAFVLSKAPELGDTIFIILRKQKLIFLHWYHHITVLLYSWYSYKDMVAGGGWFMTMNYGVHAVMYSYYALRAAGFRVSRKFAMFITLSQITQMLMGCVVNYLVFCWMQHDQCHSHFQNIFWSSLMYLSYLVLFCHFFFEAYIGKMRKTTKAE
The experiment in a line: Inhibition of ELOVL6 (unknown origin) using C16-acyl-CoA as substrate by radiometric enzyme assay.

For series [3], the target named is T3, Very long chain fatty acid elongase 7 (Homo sapiens, UniProt A1L3X0).
T3 sequence (A1L3X0 whole entry): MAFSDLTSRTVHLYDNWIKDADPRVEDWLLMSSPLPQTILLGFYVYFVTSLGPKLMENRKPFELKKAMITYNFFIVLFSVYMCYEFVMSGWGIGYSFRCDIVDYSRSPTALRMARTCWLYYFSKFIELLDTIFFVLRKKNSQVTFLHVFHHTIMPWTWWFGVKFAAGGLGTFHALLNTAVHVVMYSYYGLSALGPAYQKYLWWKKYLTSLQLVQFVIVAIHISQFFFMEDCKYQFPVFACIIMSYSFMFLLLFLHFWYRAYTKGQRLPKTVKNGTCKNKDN
Description: Inhibition of ELOVL7 (unknown origin) using C18-acyl-CoA as substrate by radiometric enzyme assay.

In series [4] the target is T1, Very long chain fatty acid elongase 1. The experiment in a line: Inhibition of ELOVL1 in human HEK2936E cells assessed as reduction of C26:0 LPC synthesis incubated for 48 hrs by cellular assay. The class given is cell-based.
A short description of series [5]: Intrinsic clearance in human hepatocytes assessed per million cells. The following applies: read-out: CLH. The class given is ADME, cell-based, Hepatocyte.
Series [6] is described as follows: Intrinsic clearance in rat hepatocytes assessed per million cells. The class given is ADME, cell-based, Hepatocyte. The following applies: read-out: CLH.
A short description of series [7]: Reduction in C26:0 LPC level in ABCD1 (-/y) knock out mouse brain at 0.4 to 2 mg/kg, ip administered daily measured after 4.5 months by LC-MS/MS analysis. On the set-up: scale not given: the % may be the effect or the level left. The following applies: dose 0.4-2 mg/kg, 3285 h. The class given is functional.

Usually IC50 stands for the concentration at which inhibition is half-maximal. As to `O=C(Nc1nc(-c2ccccc2)cs1)C1CCCO1` (stereo unspecified), the IC50 in series [1] was 30000 nM; in series [2] it was greater than 100000 nM; in series [3] it was greater than 100000 nM.

Regarding `O=C(Cc1ccccc1F)Nc1nc(-c2ccnc(F)c2)cs1`, the IC50 was 4400 nM in series [1], greater than 100000 nM in series [2] and greater than 100000 nM in series [3].

As for `O=C(Nc1nc(-c2ccncc2)cs1)C1(c2ccccc2)CC1`, the IC50 in series [1] was 1800 nM; in series [2], greater than 100000 nM; in series [3], greater than 100000 nM.

For the compound `COc1cc(-n2ccc(NC(=O)C3(c4ccccc4F)CC3)n2)ccn1`, the IC50 in series [1] turned out to be 1200 nM; in series [4], 50 nM. The hepatocyte CLint in series [5] was 11 µL/min/1e6 cells; in series [6] it was 130 µL/min/1e6 cells.

As to `O=C(Nc1ccn(-c2ccc(F)nc2)n1)C1(c2ccccc2F)CC1`, the IC50 stood at 800 nM in series [1] and 23 nM in series [4]. In addition, the hepatocyte CLint in series [5] worked out at 6 µL/min/1e6 cells; in series [6] it was 23 µL/min/1e6 cells.

Regarding `O=C(Nc1ccn(-c2cncc(F)c2)n1)C1(c2c(F)cccc2F)CC1`, the IC50 was 1200 nM in series [1] and 17 nM in series [4]. Further, the values for the hepatocyte CLint in series [5] and in series [6] were 4 µL/min/1e6 cells and 13 µL/min/1e6 cells, respectively.

`N#Cc1cccc(C2(C(=O)Nc3ccn(-c4cncc(F)c4)n3)CC2)c1`: the 50% inhibitory concentration (IC50) in series [1] is 2300 nM; in series [4], 310 nM. For the same compound, the hepatocyte CLint in series [5] is 4 µL/min/1e6 cells; in series [6], 60 µL/min/1e6 cells.

As to `Cc1cc(OCC(=O)O)cc(C)c1Cc1ccc(O)c(C(C)C)c1` [SOBETIROME], the Activity in series [7] came out at 21%.

Regarding `C[C@@H](C(=O)Nc1ccn(-c2ccccc2)n1)c1ccccc1`, the IC50 in series [1] came to 1600 nM; in series [4] it was 210 nM. Further, the hepatocyte CLint was 56 µL/min/1e6 cells in series [5] and 313 µL/min/1e6 cells in series [6].

In the case of `N#Cc1ccccc1C1(C(=O)Nc2ccn(-c3cncc(F)c3)n2)CC1`, the values for the IC50 in series [1] and in series [4] were 23000 nM and 2500 nM, respectively. The hepatocyte CLint in series [5] worked out at 5 µL/min/1e6 cells; in series [6] it was 13 µL/min/1e6 cells.

With `O=C(Cc1ccccc1F)Nc1nc(-c2ccccc2)cs1`, the results for the IC50 in series [1] and in series [4] were 3200 nM and 280 nM, respectively. Further, the hepatocyte CLint in series [5] is 102 µL/min/1e6 cells; in series [6], 281 µL/min/1e6 cells.

For the compound `O=C(Cc1ccccc1)Nc1nc(-c2ccccc2)cs1`, the IC50 in series [1] is 4000 nM; in series [4], 500 nM. The hepatocyte CLint in series [5] came to 127 µL/min/1e6 cells; in series [6], 398 µL/min/1e6 cells.

Take `O=C(Nc1ccn(-c2ccccc2)n1)C1(c2ccccc2)CC1(F)F` (stereo unspecified): the IC50 came out at 980 nM in series [1] and 140 nM in series [4]. In addition, the hepatocyte CLint in series [5] turned out to be 194 µL/min/1e6 cells; in series [6], 278 µL/min/1e6 cells.
